Results taken from paper PMC6972920, “Structure-based development of caged dopamine D2/D3 receptor antagonists” (Scientific Reports, 2020).

How the values were obtained:
[1] = Quantum yield determination of uncaging (365 nm LED); assay type: physicochemical; settings: for quantum yield φ for photolytic liberation of dechloroeticlopride: 365 nm; for quantum yield ϕ: 0.1 mM in aqueous buffer; for quantum yield ϕ / yield of liberated dechloroeticlopride: 365 nm LED
Experimental: Quantum yield determination. Quantum yields were determined in the following setup: translation stages (horizontal and vertical): Thorlabs DT 25/M or DT S25/M; photographic lens with f = 50 mm; magnetic stirrer: Faulhaber motor (1524B024S R) with 14:1 gear (15A); PS19Q power sensor from Coherent; PowerMax software; adjustable power supply “Basetech BT-153 0-15 V/DC 0-3 A 45 W” [2].
Measurements were performed in a covered apparatus to minimize the influence of ambient light. A 10 mm Hellma® quartz fluorescence cuvette with solvent (aqueous buffer solution, 2 ml) and a stirring bar was placed in the beam of a 365 nm LED and the transmitted power (Pref = 4.40 mW) was measured by a calibrated photodiode horizontal to the cuvette. The content of the cuvette was changed to a 0.1 mM solution of the respective caged compound in aqueous buffer (2 ml) with a stirring bar. The transmitted power was measured analogously to the blank solution. The sample was further irradiated and the transmitted power as well as the respective yield of liberated benzamide dechloroeticlopride was recorded after different times. The quantum yield was then calculated with the following […]
ϕ = N௉ = c௉ ∙ V ∙N஺ ∙ h ∙c
ϕ = quantum yield h = Planck constant
N௉ = number of product molecules formed c = speed of light
N௉௛.௔௕௦. = number of absorbed photons P௔௕௦. = radiant power absorbed
c௉ = product concentration ∆t = irradiation time
V = sample volume λ = irradiation wavelength […]
entry compound irradiation time Pabs. yield ϕ

[2] = biological target: T1, human dopamine D5 receptor (Homo sapiens, UniProt P21918); test: Competition binding, [3H]SCH23390, HEK293T membranes
T1 construct: expressed in transfected cells; host or cells: HEK293T cells, transient transfection

[3] = biological target: T2, human serotonin 5-HT2A receptor (Homo sapiens, UniProt P28223); test: Competition binding, [3H]ketanserin, HEK293T membranes; settings: ± SD of two experiments
T2 construct: expressed in transfected cells; host or cells: HEK293T cells, transient transfection

[4] = biological target: T3, human adrenergic α2A receptor (Homo sapiens, UniProt P08913); test: Competition binding, [3H]RX821002, HEK293T membranes; settings: [3H]RX821002; ± SD of two experiments
T3 construct: expressed in transfected cells; host or cells: HEK293T cells, transient transfection
T3 sequence (P08913 1-465): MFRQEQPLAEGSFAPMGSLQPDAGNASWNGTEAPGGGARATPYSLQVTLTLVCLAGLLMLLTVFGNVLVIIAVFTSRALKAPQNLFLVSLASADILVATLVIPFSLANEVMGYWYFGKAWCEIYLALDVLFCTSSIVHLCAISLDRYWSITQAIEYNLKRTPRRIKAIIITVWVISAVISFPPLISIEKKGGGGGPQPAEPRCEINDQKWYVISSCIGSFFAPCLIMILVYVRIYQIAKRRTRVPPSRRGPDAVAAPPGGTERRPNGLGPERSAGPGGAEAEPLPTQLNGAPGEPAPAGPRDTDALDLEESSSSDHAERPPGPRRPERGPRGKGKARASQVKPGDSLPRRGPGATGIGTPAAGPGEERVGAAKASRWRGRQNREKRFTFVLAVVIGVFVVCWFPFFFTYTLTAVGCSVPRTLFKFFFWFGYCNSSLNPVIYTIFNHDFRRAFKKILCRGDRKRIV

[5] = biological target: T4, human adrenergic β2 receptor (Homo sapiens, UniProt P07550); test: Competition binding, [3H]CGP12177, HEK293T membranes; settings: ± SD of two experiments
T4 construct: expressed in transfected cells; host or cells: HEK293T cells, transient transfection

[6] = biological target: T5, human serotonin 5-HT1A receptor (Homo sapiens, UniProt P08908); test: Competition binding, [3H]WAY600135, HEK293T membranes; settings: ± SD of two experiments
T5 construct: expressed in transfected cells; host or cells: HEK293T cells, transient transfection
T5 sequence (P08908 1-422): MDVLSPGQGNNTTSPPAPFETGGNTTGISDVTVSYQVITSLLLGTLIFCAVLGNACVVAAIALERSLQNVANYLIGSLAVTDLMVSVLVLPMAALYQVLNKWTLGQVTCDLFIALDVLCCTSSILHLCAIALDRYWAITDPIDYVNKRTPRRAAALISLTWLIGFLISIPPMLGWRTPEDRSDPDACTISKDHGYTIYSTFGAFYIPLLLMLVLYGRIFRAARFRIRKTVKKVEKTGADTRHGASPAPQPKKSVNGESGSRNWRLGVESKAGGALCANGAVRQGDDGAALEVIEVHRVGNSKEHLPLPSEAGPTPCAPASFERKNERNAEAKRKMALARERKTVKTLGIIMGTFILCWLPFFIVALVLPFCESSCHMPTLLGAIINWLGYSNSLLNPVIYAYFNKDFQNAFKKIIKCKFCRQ

[7] = test system: D2 and D3 receptors; test: Radioligand binding, summary over D2 and D3 subtypes; set-up: species or system human
[8] = biological target: T6, human dopamine D1 receptor (Homo sapiens, UniProt P21728); test: Competition binding, [3H]SCH23390, HEK293T membranes; settings: read-out: Ki value D1
T6 construct: expressed in transfected cells; host or cells: HEK293T cells, transient transfection

[9] = biological target: T7, human adrenergic α1A receptor (Homo sapiens, UniProt P35348); test: Competition binding, [3H]prazosin, HEK293T membranes; settings: ± SD of two experiments
T7 construct: expressed in transfected cells; host or cells: HEK293T cells, transient transfection
T7 sequence (P35348 1-466): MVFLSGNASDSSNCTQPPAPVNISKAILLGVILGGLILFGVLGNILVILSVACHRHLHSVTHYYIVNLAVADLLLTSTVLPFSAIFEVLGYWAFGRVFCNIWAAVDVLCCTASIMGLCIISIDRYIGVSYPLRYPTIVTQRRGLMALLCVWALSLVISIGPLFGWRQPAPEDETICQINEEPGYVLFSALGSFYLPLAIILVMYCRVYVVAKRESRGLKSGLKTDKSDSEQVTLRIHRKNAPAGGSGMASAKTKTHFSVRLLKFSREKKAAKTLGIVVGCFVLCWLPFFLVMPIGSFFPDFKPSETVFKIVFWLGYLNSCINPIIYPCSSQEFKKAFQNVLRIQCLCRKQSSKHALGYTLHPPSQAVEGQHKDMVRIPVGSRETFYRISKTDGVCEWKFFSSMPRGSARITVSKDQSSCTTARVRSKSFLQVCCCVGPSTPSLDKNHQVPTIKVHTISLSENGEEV

T2 sequence (P28223 whole entry): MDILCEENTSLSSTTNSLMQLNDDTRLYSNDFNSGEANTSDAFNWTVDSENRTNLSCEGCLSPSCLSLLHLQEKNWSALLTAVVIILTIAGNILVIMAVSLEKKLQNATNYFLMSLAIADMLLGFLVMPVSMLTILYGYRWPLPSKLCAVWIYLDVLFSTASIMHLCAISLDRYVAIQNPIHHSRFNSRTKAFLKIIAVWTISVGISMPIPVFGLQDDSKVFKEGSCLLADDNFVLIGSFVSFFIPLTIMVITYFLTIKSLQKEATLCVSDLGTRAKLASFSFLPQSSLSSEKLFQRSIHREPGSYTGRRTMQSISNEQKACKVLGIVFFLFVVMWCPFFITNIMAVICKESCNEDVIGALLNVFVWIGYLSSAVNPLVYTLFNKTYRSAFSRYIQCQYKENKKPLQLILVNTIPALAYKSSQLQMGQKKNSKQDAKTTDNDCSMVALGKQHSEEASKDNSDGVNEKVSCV
T1 sequence (P21918 whole entry): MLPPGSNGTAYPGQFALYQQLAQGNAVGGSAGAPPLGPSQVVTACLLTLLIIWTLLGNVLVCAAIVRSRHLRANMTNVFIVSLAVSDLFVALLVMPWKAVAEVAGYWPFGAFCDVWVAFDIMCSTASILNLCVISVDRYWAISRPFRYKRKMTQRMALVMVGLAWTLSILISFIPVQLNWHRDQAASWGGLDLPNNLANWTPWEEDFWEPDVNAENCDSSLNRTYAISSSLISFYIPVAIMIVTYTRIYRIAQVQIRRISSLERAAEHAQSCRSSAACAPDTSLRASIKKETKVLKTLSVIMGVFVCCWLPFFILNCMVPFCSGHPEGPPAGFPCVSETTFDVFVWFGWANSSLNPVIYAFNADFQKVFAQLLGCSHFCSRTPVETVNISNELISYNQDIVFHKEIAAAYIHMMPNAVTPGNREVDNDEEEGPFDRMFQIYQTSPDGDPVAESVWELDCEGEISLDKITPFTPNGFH
T4 sequence (P07550 whole entry): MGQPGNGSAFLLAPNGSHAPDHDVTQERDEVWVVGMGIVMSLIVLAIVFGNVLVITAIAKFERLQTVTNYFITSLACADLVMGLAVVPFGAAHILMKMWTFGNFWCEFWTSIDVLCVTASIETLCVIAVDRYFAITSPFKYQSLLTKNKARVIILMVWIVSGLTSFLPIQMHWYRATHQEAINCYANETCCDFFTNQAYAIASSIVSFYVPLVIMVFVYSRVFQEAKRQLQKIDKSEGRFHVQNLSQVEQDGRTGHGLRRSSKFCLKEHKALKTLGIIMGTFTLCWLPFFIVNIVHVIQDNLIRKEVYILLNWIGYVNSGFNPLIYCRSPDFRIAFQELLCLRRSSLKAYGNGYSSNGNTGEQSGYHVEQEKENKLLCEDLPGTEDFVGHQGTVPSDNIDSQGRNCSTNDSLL
T6 sequence (P21728 whole entry): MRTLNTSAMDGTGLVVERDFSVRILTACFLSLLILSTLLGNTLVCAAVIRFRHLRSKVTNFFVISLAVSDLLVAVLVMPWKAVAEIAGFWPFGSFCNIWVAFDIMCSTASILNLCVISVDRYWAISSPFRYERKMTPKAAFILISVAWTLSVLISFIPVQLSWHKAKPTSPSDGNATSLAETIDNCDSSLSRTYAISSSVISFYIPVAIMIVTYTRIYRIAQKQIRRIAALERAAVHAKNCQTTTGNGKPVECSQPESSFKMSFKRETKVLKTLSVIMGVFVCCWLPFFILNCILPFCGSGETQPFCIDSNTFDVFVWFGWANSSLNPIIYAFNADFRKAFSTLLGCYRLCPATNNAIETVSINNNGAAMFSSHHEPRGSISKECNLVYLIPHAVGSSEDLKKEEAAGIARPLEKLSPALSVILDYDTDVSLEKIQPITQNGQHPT

SMILES	quantum yield φ for photolytic liberation of dechloroeticlopride [1]	quantum yield ϕ ([1]; irradiation time 10 min)	yield of liberated dechloroeticlopride ([1]; irradiation time 10 min)	quantum yield ϕ ([1]; irradiation time 30 min)	yield of liberated dechloroeticlopride ([1]; irradiation time 30 min)	Ki [2]	Ki [3]	Ki [4]	Ki [5]	Ki [6]	difference in affinity, uncaged dechloroeticlopride over 4, 5 and 6 ([7]; at D2S and D3, radioligand displacement curves)	Ki ([7]; range over D2L, D2S, D3, stated in text)	Ki [8]	Ki [9]
CCc1ccc(OC)c(C(=O)NC[C@@H]2CCCN2CC)c1OCc1ccccc1[N+](=O)[O-] [compound 4, (S)-3-Ethyl-N-[(1-ethylpyrrolidin-2-yl)methyl]-6-methoxy-2-[(2-nitrobenzyl)oxy]benzamide]	0.5%	2.9%	11%	1.2%	16%	–	–	–	–	–	–	–	–	–
CCc1ccc(OC)c(C(=O)NC[C@@H]2CCCN2CC)c1OCc1cc(OC)c(OC)cc1[N+](=O)[O-] [compound 5]	2.1%	0.7%	17%	0.3%	22%	–	–	–	–	–	–	–	–	–
CCc1ccc(OC)c(C(=O)NC[C@@H]2CCCN2CC)c1O [dechloroeticlopride, (S)-3-Ethyl-N-[(1-ethylpyrrolidin-2-yl)methyl]-2-hydroxy-6-methoxybenzamide, reference compound]	–	–	–	–	–	49 ± 17 µM	0.27 ± 0.028 µM	0.1 ± 0.036 µM	8.9 ± 3 µM	1.8 ± 0.42 µM	more than 100 fold	0.0012 to 0.0024 µM	11 ± 3.6 µM	0.88 ± 0.15 µM
